Laboratory results reported in patent publication US20260242395A1, “AMINOHETEROARYL KINASE INHIBITORS” (ALLORION THERAPEUTICS INC, priority 2022, published 2026).

How the values were obtained:
Assay type in all cases: biochemical
CDK1/CyclinB = biological target: T1, CDK1/CyclinB (Homo sapiens, UniProt P06493); test: CDK1/CyclinB kinase inhibitory activity (Caliper mobility shift); conditions: enzyme 3 nM, ATP 20 μM, 28° C. 30 min; read-out: CDK1/Cyclin B1 IC50
T1 construct: purchased Millipore 14-450M
T1 sequence (P06493 whole entry): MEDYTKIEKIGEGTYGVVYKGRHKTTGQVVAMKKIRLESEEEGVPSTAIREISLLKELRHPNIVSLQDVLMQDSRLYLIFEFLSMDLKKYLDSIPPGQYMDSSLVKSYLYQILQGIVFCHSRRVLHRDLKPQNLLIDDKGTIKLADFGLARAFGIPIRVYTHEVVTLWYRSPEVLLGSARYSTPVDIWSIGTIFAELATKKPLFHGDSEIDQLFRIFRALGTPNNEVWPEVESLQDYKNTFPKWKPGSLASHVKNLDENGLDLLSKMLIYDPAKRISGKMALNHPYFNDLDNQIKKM
T1 sequence (P14635 whole entry partner): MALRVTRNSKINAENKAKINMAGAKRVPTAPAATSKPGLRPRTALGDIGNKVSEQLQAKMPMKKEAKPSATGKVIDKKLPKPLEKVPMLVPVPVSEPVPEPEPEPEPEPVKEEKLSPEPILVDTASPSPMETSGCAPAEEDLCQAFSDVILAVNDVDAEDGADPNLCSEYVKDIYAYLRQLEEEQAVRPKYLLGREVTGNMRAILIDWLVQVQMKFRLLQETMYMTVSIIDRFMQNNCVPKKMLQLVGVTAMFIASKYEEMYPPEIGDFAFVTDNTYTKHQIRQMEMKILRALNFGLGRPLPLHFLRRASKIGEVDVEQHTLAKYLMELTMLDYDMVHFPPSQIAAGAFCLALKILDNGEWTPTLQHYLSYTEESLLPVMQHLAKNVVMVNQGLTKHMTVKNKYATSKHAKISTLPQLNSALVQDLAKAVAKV
Description: CDK1/CyclinB kinase inhibitory activity (IC50): 5 μl of various dilutions of test compound in 1× kinase buffer (50 mM HEPES pH 7.5, 10 mM MgCl2, 2 mM DTT and 0.01% Brij-35) was mixed with 10 μL of CDK1/CyclinB (Millipore, 14-450M #, final concentration 3 nM in 1× Kinase buffer) in 384 plates and incubated at room temperature for 10 min. To initiate each reaction, 10 μL of peptide solution containing fluorescently-labeled-peptide 18(5-FAM-QSPKKG-CONH2) (GL, 114202 #, final concentration 3000 nM) and ATP (final concentration 20 μM) in 1× Kinase buffer was added to each of the wells containing test compound and CDK1/CyclinB mixture. The reaction is then allowed to proceed at 28° C. for 30 min and terminated by the addition of 25 μL stop buffer (100 mM HEPES pH 7.5, 50 mM EDTA, 0.2% Coating Reagent #3 (Perkin Elmer, 760050 #) and 0.015% Brij-35).
(§1) Following the kinase reaction, Caliper EZ reader II (Downstream voltages: −500V, Upstream voltages: −2250V, Base pressure −0.5 PSI, Screen pressure −1.2 PSI) was used to separate the phosphorylated (product) and the unphosphorylated (substrate) fluorescently-labeled peptide 18 based on their different mobility. Both substrate and product were measured and the ratio of these values were used to generate % conversion by Caliper EZ reader II. These conversion values were then transformed into % inhibition of kinase activity using the formula: % Inhibition=[(MA−X)/(MA−MI)]×100% where MA=conversion value of DMSO only controls, MI=conversion value of no enzyme controls and X=conversion value at any given compound dose. IC50 values were then calculated by plotting dose-response curves and then using the XLfit application in Excel software.

CDK6/CyclinD3 = biological target: T2, CDK6/CyclinD3 (Homo sapiens, UniProt Q00534); test: CDK6/CyclinD3 kinase inhibitory activity (Caliper mobility shift); conditions: enzyme 15 nM, ATP 800 μM, 28° C. 30 min; read-out: CDK6/Cyclin D3 IC50
T2 construct: purchased Carna 04-107
T2 sequence (Q00534 whole entry): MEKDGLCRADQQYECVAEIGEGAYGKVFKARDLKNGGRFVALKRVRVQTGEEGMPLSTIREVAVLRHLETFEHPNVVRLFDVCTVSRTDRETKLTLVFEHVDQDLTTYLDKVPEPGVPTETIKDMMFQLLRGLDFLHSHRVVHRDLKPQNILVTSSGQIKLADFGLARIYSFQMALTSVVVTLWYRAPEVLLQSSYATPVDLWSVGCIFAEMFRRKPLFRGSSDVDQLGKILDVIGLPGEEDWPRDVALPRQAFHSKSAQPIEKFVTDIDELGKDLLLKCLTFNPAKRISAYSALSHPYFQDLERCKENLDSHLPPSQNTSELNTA
T2 sequence (P30281 whole entry partner): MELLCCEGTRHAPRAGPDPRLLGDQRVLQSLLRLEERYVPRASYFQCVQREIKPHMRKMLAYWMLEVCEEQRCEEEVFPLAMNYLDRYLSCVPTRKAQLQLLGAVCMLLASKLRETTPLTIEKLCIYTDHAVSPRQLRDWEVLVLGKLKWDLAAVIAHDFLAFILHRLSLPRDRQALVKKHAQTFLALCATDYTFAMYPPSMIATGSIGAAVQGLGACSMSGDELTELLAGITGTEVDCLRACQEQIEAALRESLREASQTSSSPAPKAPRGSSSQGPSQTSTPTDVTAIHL
Method in brief: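 Compound preincubated 10 min at room temperature with CDK6/CyclinD3 (15 nM final) in HEPES pH 7.5/MgCl2/DTT buffer; reaction with 5-FAM peptide (3000 nM) and ATP 800 μM, 30 min at 28°C, stopped with EDTA. Substrate/product separated by microfluidic mobility shift; % conversion converted to % inhibition, IC50 from dose-response curves.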

CDK9/CyclinT1 = biological target: T3, CDK9/CyclinT1 (Homo sapiens, UniProt P50750); test: CDK9/CyclinT1 kinase inhibitory activity (Caliper mobility shift); conditions: enzyme 12.5 nM, ATP 10M, 28° C. 30 min; read-out: CDK9/Cyclin T1 IC50
T3 construct: purchased Millipore 14-685M
T3 sequence (P50750 whole entry): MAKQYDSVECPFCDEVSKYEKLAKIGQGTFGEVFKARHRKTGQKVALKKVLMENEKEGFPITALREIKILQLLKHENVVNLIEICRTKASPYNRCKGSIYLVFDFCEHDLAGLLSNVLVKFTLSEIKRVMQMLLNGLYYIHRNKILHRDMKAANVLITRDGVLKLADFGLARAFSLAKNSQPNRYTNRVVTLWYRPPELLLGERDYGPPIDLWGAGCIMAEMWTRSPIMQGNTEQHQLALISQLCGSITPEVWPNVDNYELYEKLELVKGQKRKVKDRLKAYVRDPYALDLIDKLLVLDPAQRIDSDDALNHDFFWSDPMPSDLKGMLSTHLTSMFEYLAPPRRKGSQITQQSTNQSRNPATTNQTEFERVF
T3 sequence (O60563 whole entry partner): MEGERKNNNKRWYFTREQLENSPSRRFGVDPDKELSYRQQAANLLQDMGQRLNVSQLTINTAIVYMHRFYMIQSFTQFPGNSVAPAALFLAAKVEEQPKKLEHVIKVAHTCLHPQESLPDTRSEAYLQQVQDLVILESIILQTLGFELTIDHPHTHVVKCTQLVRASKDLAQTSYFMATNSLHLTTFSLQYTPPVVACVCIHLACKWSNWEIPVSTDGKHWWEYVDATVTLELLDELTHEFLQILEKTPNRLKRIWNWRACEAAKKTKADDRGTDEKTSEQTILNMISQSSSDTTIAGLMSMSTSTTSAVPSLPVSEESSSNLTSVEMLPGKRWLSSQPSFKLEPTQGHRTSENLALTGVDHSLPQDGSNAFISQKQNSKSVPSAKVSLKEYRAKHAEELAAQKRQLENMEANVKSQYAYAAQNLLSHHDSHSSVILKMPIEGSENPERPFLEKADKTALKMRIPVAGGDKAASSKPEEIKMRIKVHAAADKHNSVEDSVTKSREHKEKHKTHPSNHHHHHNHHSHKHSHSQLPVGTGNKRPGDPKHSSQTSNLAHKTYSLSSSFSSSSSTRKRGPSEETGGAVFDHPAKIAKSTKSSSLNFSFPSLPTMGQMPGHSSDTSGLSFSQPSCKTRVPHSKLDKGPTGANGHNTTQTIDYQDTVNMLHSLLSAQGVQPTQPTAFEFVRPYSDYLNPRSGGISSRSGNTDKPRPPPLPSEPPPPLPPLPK
Description: CDK9/CyclinT1 kinase inhibitory activity (IC50): 5 μl of various dilutions of test compound in 1× kinase buffer (20 mM HEPES, pH 7.5, 10 mM MgCl2, 2 mM DTT and 0.01% Triton X-100) was mixed with 10 μL of CDK9/CyclinT1 (Millipore, 14-685M #, final concentration 12.5 nM in 1× Kinase buffer) in 384 plates and incubated at room temperature for 10 min. To initiate each reaction, 10 μL of peptide solution containing fluorescently-labeled -peptide CTD3 (5-FAM-[…], GL, SY346885 #, final concentration 3000 nM) and ATP (final concentration […]) in 1× Kinase buffer was added to each of the wells containing test compound and CDK9/CyclinT1 mixture. The reaction is then allowed to proceed at 28° C. for 30 min and terminated by the addition of 25 μL stop buffer (100 mM HEPES pH 7.5, 50 mM EDTA, 0.2% Coating Reagent #3 (Perkin Elmer, 760050 #) and 0.015% Brij-35).
as §1, with “CTD3” for “18”

IC50 (CDK1/CyclinB)	IC50 (CDK6/CyclinD3)	IC50 (CDK9/CyclinT1)	Structure (SMILES)
100 to 1000 nM	100 to 1000 nM	≥ 1000 nM	Cc1[nH]cnc1-c1cnc2c(F)cc(-c3nc(N[C@@H]4CCOC[C@H]4O)ncc3Cl)cc2c1 [Example 18, (3S,4R)-4-((5-chloro-4-(8-fluoro-3-(5-methyl-1H-imidazol-4-yl)quinolin-6-yl)pyrimidin-2-yl)amino)tetrahydro-2H-pyran-3-ol]
10 to 100 nM	10 to 100 nM	10 to 100 nM	O[C@@H]1COCC[C@H]1Nc1ncc(Cl)c(-c2cc(F)c3c(c2)N2CCNC[C@@H]2CO3)n1 [Example 19, (3S,4R)-4-((5-chloro-4-((R)-7-fluoro-1,2,3,4,4a,5-hexahydrobenzo[b]pyrazino[1,2-d][1,4]oxazin-9-yl)pyrimidin-2-yl)amino)tetrahydro-2H-pyran-3-ol]
100 to 1000 nM	100 to 1000 nM	100 to 1000 nM	O[C@@H]1COCC[C@H]1Nc1ncc(Cl)c(-c2cc(F)c3ncc4c(c3c2)CNC2(CC2)C4)n1 [Example 21, (3S,4R)-4-((5-chloro-4-(7-fluoro-1,4-dihydro-2H-spiro[benzo[c][2,6]naphthyridine-3,1′-cyclopropan]-9-yl)pyrimidin-2-yl)amino)tetrahydro-2H-pyran-3-ol]
100 to 1000 nM	10 to 100 nM	100 to 1000 nM	CC(C)(O)c1cnc2c(F)cc(-c3nc(N[C@@H]4CCOC[C@H]4O)ncc3F)cc2c1Cl [Example 22, (3S,4R)-4-((4-(4-chloro-8-fluoro-3-(2-hydroxypropan-2-yl)quinolin-6-yl)-5-fluoropyrimidin-2-yl)amino)tetrahydro-2H-pyran-3-ol]
100 to 1000 nM	10 to 100 nM	100 to 1000 nM	Cc1c(C(C)(C)O)cnc2c(F)cc(-c3nc(N[C@@H]4CCOC[C@H]4O)ncc3F)cc12 [Example 23, (3S,4R)-4-((5-fluoro-4-(8-fluoro-3-(2-hydroxypropan-2-yl)-4-methylquinolin-6-yl)pyrimidin-2-yl)amino)tetrahydro-2H-pyran-3-ol]
100 to 1000 nM	10 to 100 nM	10 to 100 nM	CC1(C)Cc2cnc3c(F)cc(-c4nc(N[C@@H]5CCOC[C@H]5O)ncc4F)cc3c2CN1 [Example 24, (3S,4R)-4-((5-fluoro-4-(7-fluoro-3,3-dimethyl-1,2,3,4-tetrahydrobenzo[c][2,6]naphthyridin-9-yl)pyrimidin-2-yl)amino)tetrahydro-2H-pyran-3-ol]
10 to 100 nM	10 to 100 nM	10 to 100 nM	O[C@@H]1COCC[C@H]1Nc1cc(-c2cc(F)c3ncc4c(c3c2)CNCC4)c(Cl)cn1 [Example 25]
100 to 1000 nM	≥ 1000 nM	100 to 1000 nM	CC(C)(N)c1cnc2ccc(-c3nc(N[C@@H]4CCOC[C@H]4O)ncc3Cl)cc2c1 [Example 26]
100 to 1000 nM	100 to 1000 nM	100 to 1000 nM	O[C@@H]1COCC[C@H]1Nc1ncc(Cl)c(-c2cc(F)c3ncc(C4(O)CC4)cc3c2)n1 [Example 29]
100 to 1000 nM	10 to 100 nM	10 to 100 nM	CC1(C)Cc2cnc3c(F)cc(-c4nc(N[C@@H]5CCOC[C@H]5O)ncc4Cl)cc3c2CN1 [Example 30]
≥ 1000 nM	100 to 1000 nM	100 to 1000 nM	CNC(C)(C)c1cnc2c(F)cc(-c3nc(N[C@@H]4CCOC[C@H]4O)ncc3Cl)cc2c1 [Example 36]
≥ 1000 nM	100 to 1000 nM	≥ 1000 nM	Cc1nc2c(F)cc(-c3nc(N[C@@H]4CCOC[C@H]4O)ncc3Cl)cc2c2c1CCN(C)C2 [Example 37]
≥ 1000 nM	10 to 100 nM	≥ 1000 nM	CC(C)(O)c1cnc2c(F)cc(-c3nc(N[C@@H]4CCOC[C@H]4O)ncc3C#N)cc2c1Cl [Example 41]
≥ 1000 nM	100 to 1000 nM	100 to 1000 nM	CC1(C)Cc2cnc3c(F)cc(-c4nc(N[C@@H]5CCOC[C@H]5O)ncc4C#N)cc3c2CN1 [Example 49]
≥ 1000 nM	10 to 100 nM	≥ 1000 nM	CC(C)(O)c1cnc2c(F)cc(-c3nc(Nc4ccc(-c5c[nH]cn5)cn4)ncc3F)cc2c1Cl [Example 52]
10 to 100 nM	100 to 1000 nM	10 to 100 nM	O[C@@H]1COCC[C@H]1Nc1ncc(F)c(-c2cc(F)c3ncc4c(c3c2)CNC2(CC2)C4)n1 [Example 56]
≥ 1000 nM	100 to 1000 nM	≥ 1000 nM	Cc1c(C(C)(C)O)cnc2c(C)cc(-c3nc(N[C@@H]4CCOC[C@H]4O)ncc3Cl)cc12 [Example 58]
≥ 1000 nM	100 to 1000 nM	100 to 1000 nM	[2H]C([2H])([2H])C(O)(c1cc2cc(-c3nc(N[C@@H]4CCOC[C@H]4O)ncc3Cl)cc(F)c2nc1C)C([2H])([2H])[2H] [Example 60, (3S,4R)-4-((5-chloro-4-(8-fluoro-3-(2-hydroxypropan-2-yl-1,1,1,3,3,3-d6)-2-methylquinolin-6-yl)pyrimidin-2-yl)amino)tetrahydro-2H-pyran-3-ol]
100 to 1000 nM	100 to 1000 nM	100 to 1000 nM	Cc1nc2c(F)cc(-c3nc(N[C@@H]4CCOC[C@H]4O)ncc3F)cc2c2c1CC1(CC1)NC2 [Example 65]
≥ 1000 nM	≥ 1000 nM	100 to 1000 nM	[2H]c1nc2c(F)cc(-c3nc(N[C@@H]4CCOC[C@H]4O)ncc3C)cc2c2c1CC1(CC1)NC2 [Example 67]
100 to 1000 nM	10 to 100 nM	100 to 1000 nM	[2H]c1nc(N[C@@H]2CCOC[C@H]2O)nc(-c2cc(F)c3nc([2H])c4c(c3c2)CNC2(CC2)C4)c1Cl [Example 68]
100 to 1000 nM	100 to 1000 nM	100 to 1000 nM	[2H]c1nc(N[C@@H]2CCOC[C@H]2O)nc(-c2cc(F)c3nc(C)c(C(C)(C)O)cc3c2)c1F [Example 83]
100 to 1000 nM	10 to 100 nM	100 to 1000 nM	[2H]c1nc2c(F)cc(-c3nc(N[C@@H]4CCOC[C@H]4O)ncc3F)cc2c(C)c1C(C)(C)O [Example 94]
≥ 1000 nM	100 to 1000 nM	100 to 1000 nM	Cc1nc2c(F)cc(-c3nc(N[C@@H]4CCOC[C@H]4O)ncc3Cl)cc2c2c1CC(C)(C)NC2 [Example 98]
100 to 1000 nM	10 to 100 nM	10 to 100 nM	[2H]c1nc2c(F)cc(-c3nc(N[C@@H]4CCOC[C@H]4O)ncc3Cl)cc2c2c1CC(C)(C)NC2 [Example 100]
≥ 1000 nM	100 to 1000 nM	100 to 1000 nM	[2H]c1nc2c(F)cc(-c3nc(N[C@@H]4CCOC[C@H]4O)ncc3C)cc2c2c1CC(C)(C)NC2 [Example 102]
100 to 1000 nM	100 to 1000 nM	100 to 1000 nM	CC1(C)Cc2cnc3c(F)cc(-c4ccnc(N[C@@H]5CCOC[C@H]5O)n4)cc3c2CN1 [Example 107]
